In patent publication US20180297966A1, “COMPOUNDS, COMPOSITIONS, AND METHODS OF MAKING AND USING THE SAME” (INNOVATIVE ANESTHETICS, LLC, priority 2015, published 2018):
Where “and” joins values, the source holds several entries; their conditions need not be identical. Equal values may be shown once. Where a name gives a salt, the structure may show the parent alone. Read-outs that look alike come from different tables or passages of the source.

Tests used:
[1] = pH of exemplary salts with respect to concentration (% w/v); type: physicochemical
rats (hindpaw heat pain) = test: Hindpaw withdrawal latency to a thermal stimulus after injection of a caine salt; type: in vivo, Sprague Dawley rats; conditions: 1% by weight solution in water, 100 μl injected into hindpaw of rats, 10 minutes post-injection, compared to naïve animals, N=10 animals/group, cutoff 32 seconds
Method: Male Sprague Dawley® rats (200-300 g, Charles River) were housed in groups of two and were maintained in a standard 12-h light/dark cycle and testing was completed in the light portion of the cycle between 09:00-12:00. Animals were placed into the behavioural procedure room 30 min prior to testing to acclimate. When not in testing sessions, food and water were made available ad libitum. Animal testing procedures complied with the ethical guidelines and standards established by the University of Florida's Institutional Animal Care & Use Committee and with the Guide for Care and Use of Laboratory Animals (National Research Council Guide for the Care and Use of Laboratory Animals. Washington, D.C., National Academy Press; 1996.).
1% by weight solutions of 3a-3h were injected into the hindpaw of rats and withdrawal latency to a thermal stimulus was recorded 10 minutes post-injection. Response to hindpaw heat pain was determined by placing unrestrained rats on a clear glass platform under a small plastic cage and rats habituated for 5 min. A radiant heat source was aimed directly under the ventral hindpaw surface and the time to paw withdrawal was recorded. Baseline responses were obtained under naïve conditions (e.g., no injection), while post-treatment effects of caine salts 3a-3h in the respective vehicle (water) were assessed for 10 minutes following injection (100 μl). A cutoff of 32 seconds was used to prevent tissue damage.

| Compound | pH ([1]; Conc. 2% w/v) | pH ([1]; Conc. 5% w/v) | pH ([1]; Conc. 10% w/v) | withdrawal latency to a thermal stimulus (rats (hindpaw heat pain)) | pH [1] |
| --- | --- | --- | --- | --- | --- |
| CCCNC(C)C(=O)Nc1c(C)csc1C(=O)OC (stereo not shown) [Articaine hydrochloride, reference compound] | 4.78 | 4.62 | 4.22 | – | – |
| CCCNC(C)C(=O)Nc1c(C)csc1C(=O)OC.O=C1NS(=O)(=O)c2ccccc21 (stereo not shown) [Articaine saccharinate, Articaine Saccharinate] | – | – | – | significant increase in latency time | 3.83 and 4.15 |
| CC1=CC(=O)NS(=O)(=O)O1.CCCCN1CCCCC1C(=O)Nc1c(C)cccc1C (stereo not shown) [Bupivacaine acesulfamate, Bupivacaine Acesulfamate] | – | – | – | significant increase in latency time | 4.25 and 5.13 and 5.38 |
| CCCCN1CCCCC1C(=O)Nc1c(C)cccc1C (stereo not shown) [Bupivacaine hydrochloride, reference compound] | 5.22 | 4.81 | 4.23 | – | – |
| CCCCN1CCCCC1C(=O)Nc1c(C)cccc1C.O=C1NS(=O)(=O)c2ccccc21 (stereo not shown) [Bupivacaine saccharinate, Bupivacaine Saccharinate] | – | – | – | significant increase in latency time | 3.84 and 3.66 and 5.19 |
| CC1=CC(=O)NS(=O)(=O)O1.CNC[C@H](O)c1ccc(O)c(O)c1 [Epinephrine acesulfamate, Epinephrine Acesulfamate] | – | – | – | – | 4.01 and 4.14 and 4.34 |
| CNC[C@H](O)c1ccc(O)c(O)c1 [Epinephrine hydrochloride, reference compound] | 4.84 | 3.91 | 2.72 | – | – |
| CNC[C@H](O)c1ccc(O)c(O)c1.O=C1NS(=O)(=O)c2ccccc21 [Epinephrine saccharinate, Epinephrine Saccharinate] | – | – | – | – | 3.57 and 4.03 and 4.41 |
| CC1=CC(=O)NS(=O)(=O)O1.CCN(CC)CC(=O)Nc1c(C)cccc1C [Lidocaine acesulfamate] | – | – | – | – | 4.84 and 5.08 and 5.26 |
| CCN(CC)CC(=O)Nc1c(C)cccc1C [Lidocaine hydrochloride, reference compound] | 4.65 | 4.53 | 3.94 | – | – |
| CCN(CC)CC(=O)Nc1c(C)cccc1C.O=C1NS(=O)(=O)c2ccccc21 [Lidocaine saccharinate] | – | – | – | – | 4.31 and 4.41 and 4.51 |
| CC1=CC(=O)NS(=O)(=O)O1.Cc1cccc(C)c1NC(=O)C1CCCCN1C (stereo not shown) [Mepivacaine acesulfamate] | 4.91 | 4.87 | 4.00 | significant increase in latency time | – |
| Cc1cccc(C)c1NC(=O)C1CCCCN1C (stereo not shown) [Mepivacaine hydrochloride, reference compound] | 4.53 | 3.77 | 3.73 | – | – |
| Cc1cccc(C)c1NC(=O)C1CCCCN1C.O=C1NS(=O)(=O)c2ccccc21 (stereo not shown) [Mepivacaine saccharinate, Mepivacaine Saccharinate] | – | – | – | significant increase in latency time | 4.06 and 4.23 |
| CC1=CC([O-])=NS(=O)(=O)O1.[K+] [Potassium acesulfamate, potassium 6-methyl-1,2,3-oxathiazin-4-olate 2,2-dioxide, reference compound] | 5.98 | 6.33 | 5.78 | – | – |
| CC1=CC(=O)NS(=O)(=O)O1.CCCNC(C)C(=O)Nc1ccccc1C (stereo not shown) [Prilocaine acesulfamate, Prilocaine Acesulfamate] | 5.16 | 5.00 | 4.71 | significant increase in latency time | – |
| CCCNC(C)C(=O)Nc1ccccc1C (stereo not shown) [Prilocaine hydrochloride, reference compound] | 4.60 | 3.42 | 2.10 | – | – |
| CCCNC(C)C(=O)Nc1ccccc1C.O=C1NS(=O)(=O)c2ccccc21 (stereo not shown) [Prilocaine saccharinate, Prilocaine Saccharinate] | – | – | – | – | 4.47 and 4.96 and 5.04 |
| Articaine Acesulfamate | – | – | – | significant increase in latency time | – |
